In PMC11862924, “Phenylpyrazoles as Inhibitors of the m^6A RNA-Binding Protein YTHDF2” (JACS Au, 2025):
Entries after “also recorded” stand apart in the source; their conditions may differ.

How the values were obtained:
[1] = molecular target: T1, YTHDC2 (residues 1285-1424) (Homo sapiens, UniProt Q9H6S0); assay: FP assay with YTH domain of YTHDC2; type: binding; conditions: 5.0 µM YTHDC2
T1 construct: YTHDC2 (residues 1285–1424); made in house; host or cells: Escherichia coli BL21(DE3); plasmid from the Zhou lab (Boston College)
T1 sequence (Q9H6S0 1285-1424): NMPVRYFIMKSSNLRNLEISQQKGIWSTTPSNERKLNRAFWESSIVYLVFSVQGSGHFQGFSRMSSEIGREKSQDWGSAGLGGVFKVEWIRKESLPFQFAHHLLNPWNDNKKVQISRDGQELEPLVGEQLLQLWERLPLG
Description: The FP assay was performed in 384-well black plates (Corning no. 4514) with a total reaction volume of 15 μL. The final concentrations of protein (YTHDF2) and RNA were […], respectively, in a buffer containing 20 mM HEPES/KOH pH 7.5, 50 mM NaCl, 0.005% Tween 20, and 1 mM GSH (DTT). Compounds were incubated with protein, added FAM-m^6A RNA probe ([…](m6)ACUGUG) (purchased from IDT), and incubated at 4 °C for 30 min. The fluorescence polarization was measured using a plate reader (TECAN Spark) under an excitation wavelength of 485 nm and an emission wavelength of 535 nm with a bandwidth of 20 nm. […] The data were determined using GraphPad Prism 9.
Figure S11. The FP assay of YTHDC2 binding to the m6A RNA substrate. (A)The purification of YTHDC2 (residues 1285-1424), molecular weight: 17.4 kDa. (B) The anisotropy values using different concentrations of YTHDC2 with the m6A RNA probe (4 nM), which was used to decide the appropriate YTHDC2 concentration for the FP (5.0 µM of YTHDC2, Z-factor: 0.83). (C) The […]
(§1) (1 picture or pasted object on this page, not shown here)

[2] = molecular target: T2, YTHDF1 (Homo sapiens, UniProt Q9BYJ9); assay: EMSA with YTHDF1; type: binding; conditions: m6A RNA 20 nM
T2 construct: Plasmids of the YTH domain of YTHDF1 (residues 375–552); made in house; host or cells: Escherichia coli BL21(DE3); plasmid from the Zhou lab (Boston College)
T2 sequence (Q9BYJ9 375-552): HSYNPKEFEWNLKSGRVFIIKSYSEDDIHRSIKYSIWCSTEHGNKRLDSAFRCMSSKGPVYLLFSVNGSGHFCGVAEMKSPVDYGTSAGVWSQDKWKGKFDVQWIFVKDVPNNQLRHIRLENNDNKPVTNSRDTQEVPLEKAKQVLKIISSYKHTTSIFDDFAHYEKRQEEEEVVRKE
Description: (§2) Compounds with different concentrations (3.1–100 μM) were incubated with 250 nM YTH-domain and 20 nM FAM-17mer-RNA in a buffer containing 20 mM HEPES, pH 8.2, 50 mM NaCl, 0.05% Triton X-100, and 5% v/v glycerol for 20 min at 4 °C. The samples were subjected to 12% native polyacrylamide gel and run at 120 V for 90 min at 4 °C using 0.5× TBE buffer. Gel imaging was performed in ChemiDoc MP (Bio-Rad), and Cy2/Alexa488 fluorescence was detected with a 1-min exposure time. Quantification of the gel image was performed by ImageJ.
Figure S12. The EMSA of YTHDF1 binding to the m6A RNA substrate. (A) The YTHDF1–RNA
complex formation in EMSA using m6A RNA (20 nM) and different concentrations of YTHDF1 . (B)
consistent results with that of FP.
as §1

[3] = molecular target: T3, YTHDC1 (Homo sapiens, UniProt Q96MU7); assay: EMSA with YTHDC1; type: binding; conditions: m6A RNA 20 nM
T3 construct: YTHDC1 (residues 345–509); made in house; host or cells: Escherichia coli BL21(DE3); plasmid from the Zhou lab (Boston College)
Description: as §2
Figure S14. The EMSA of YTHDC1 binding to the m6A RNA substrate. (A) The YTHDC1–RNA
complex formation in EMSA using m6A RNA (20 nM) and different concentrations of YTHDC1.
as §1

[4] = molecular target: T4, YTHDC2 (Homo sapiens, UniProt Q9H6S0); assay: EMSA with YTHDC2; type: binding; conditions: m6A RNA 20 nM, 10 µM YTHDC2
T4 construct: YTHDC2 (residues 1285–1424); made in house; host or cells: Escherichia coli BL21(DE3); plasmid from the Zhou lab (Boston College)
T4 sequence (Q9H6S0 1285-1424): T1 sequence (Q9H6S0 1285-1424)
Description: as §2
Figure S15. EMSA using m6A RNA and YTHDC2 protein of varied concentrations as indicated.
(A) 20 nM of m6A RNA was used and 10 µM of YTHDC2 was chosen for EMSA. (B) CK-61, CK-
as §1

[5] = system: K562 and JAR cells; assay: Dot blot assay of cellular RNA m6A methylation level; type: cell-based, human; conditions: different concentrations, highest 25 μM
Description: JAR and K562 cells were seeded in six-well plates (1.0 × 10^6 cells/well) and incubated overnight. The cells were scraped off directly and then washed with PBS. Total RNA was then extracted with the Aurum Total RNA Mini Kit. The RNA concentration was determined by NanoDrop 2000c (Thermo) and then heated for 5 min at 95 °C. Primary antibody Rb pAb to N^6-methyladenosine (m^6A) (Abcam, ab286164, 1:1000) and secondary antibody HRP-conjugated AffiniPure Goat Anti-Rabbit IgG(H+L) (SA00001–2, 1:8000) were used. Chemiluminescent detection was performed using a ChemiDoc MP (Bio-Rad).

[6] = MTT cytotoxicity assay, JAR; type: cell-based; conditions: human, JAR cells, triplicates, read-out: Cytotoxicity against cancer cells (IC50), JAR
Description: (§3) JAR, K562, and HCT116 cells were seeded in 96-well plates (3500 cells/well) and incubated for 8 h. The medium with different concentrations of compounds (100, 33.3, 11.1, 3.7, 1.2, and 0.4 μM) was added to the 96-well plates. Data were normalized to the medium with 0.1% DMSO. After incubation for 72 h, MTT solution (5 mg/mL, 20 μL) was added per well in a dark environment and incubated for 4 h. After the medium was discarded, DMSO (150 μL) was added per well, and the absorbance was measured at 492 nm by a plate reader (TECAN Spark).

[7] = MTT cytotoxicity assay, K562; type: cell-based; conditions: human, K562 cells, triplicates, read-out: Cytotoxicity against cancer cells (IC50), K562
Description: as §3

[8] = MTT cytotoxicity assay, HCT116; type: cell-based; conditions: human, HCT116 cells, triplicates, read-out: Cytotoxicity against cancer cells (IC50), HCT116
Description: as §3

inhibition at 100 µM ([1]; read-out: inhibition of YTHDC2 at 100 μM in FP, 100 μM compound) [%] | inhibition of m6A RNA binding to YTHDF1 in EMSA (in words) [2] | inhibitory activity against YTHDC2 in FP (in words) [1] | Compound | inhibition of m6A RNA binding to YTHDC1 in EMSA (in words) [3] | inhibition of m6A RNA binding to YTHDC2 in EMSA (in words) [4] | effect on global m6A RNA abundance (dot blot, in words) [5] | IC50 at 72 h [6] [µM] | IC50 at 72 h [7] [µM] | IC50 at 72 h [8] [µM]
36.1 | minimal inhibition |  | O=C(O)c1ccc(-n2cc(C(=O)c3cc(Cl)cc(Cl)c3O)cn2)cc1 [CK-61] | did not show detectable inhibitory activity; also recorded: no activity | did not show detectable inhibitory activity; also recorded: no activity | slight increase | > 50 | > 50 | > 50
 | did not show detectable inhibition | inactive | O=C(O)c1ccc(-n2cc(C(=O)c3c(O)ccc4ccccc34)cn2)cc1 [CK-75] | did not show detectable inhibitory activity; also recorded: did not show detectable inhibition | did not show detectable inhibitory activity; also recorded: did not show detectable inhibition | did not significantly impact | 47.5 | 29.7 | 33.3
 | did not show detectable inhibition | inactive | Cc1cc(O)c(C(=O)c2cnn(-c3ccc(C(=O)O)cc3)c2)cc1Cl [CK-79] | did not show detectable inhibitory activity; also recorded: did not show detectable inhibition | did not show detectable inhibitory activity; also recorded: did not show detectable inhibition | did not significantly impact | 31.6 | 29.4 ± 16.7 | 33.6 ± 14.7
